The record followed here is US20120245201A1, “Isopropylphenidate for Treatment of Attention-Deficit/Hyperactivity Disorder and Fatigue-Related Disorders and Conditions” (priority 2009, published 2012).

In data set [1] the target is T1, human serotonin 5-HT transporter (SERT) (Homo sapiens, UniProt P31645).
T1 construct: host or cells: CHO cells, cell membrane homogenates
The experiment in a line: Serotonin transporter binding assay ([3H]imipramine, CEREP). The settings on record: ligand [3H]imipramine, transfected CHO cells, HCl salts. Here is the method: (§1) Transporter Binding and Cellular Uptake. All described monoamine transporter binding studies as well as cellular uptake assays were performed in duplicate by CEREP (Celle l'Evescault, France) and are described below. Further details of all assays performed may be accessed at the CEREP web site (world-wide-web at cerep.com). Cellular-based assays were conducted to provide complementary in vitro functional measures to complement the standard transporter assays as well as to provide direct comparisons of the homologs IPH with MPH with regard to DA, NE, and 5-HT uptake in synaptosomal preparations. The concentration of MPH, EPH, and IPH utilized in these studies was 10 μM, which represents a generally accepted screening concentration when evaluating compounds in this manner.
Serotonin Transporter Binding Assay. […] Briefly, cell membrane homogenates were incubated for 90 min at 4° C. with 2 nM of [^3H]imipramine in the absence and presence of each of the assessed compounds. Nonspecific binding was determined in the presence of 10 μM of imipramine. […] The filters were then dried and measured for radioactivity via scintillation counter. The standard reference compound was the TCA imipramine, which was tested in each experiment at several concentrations to generate a competition curve from which its IC50 was calculated.

Data set [2] relates to NE uptake, synaptosomes prepared from the rat hypothalamus. The experiment in a line: Norepinephrine uptake into synaptosomes. Type of data set: cell-based. How it is done: as §1, with “preparations.” for “preparations. The concentration of MPH, EPH, and IPH utilized in these studies was 10 μM, which represents a generally accepted screening concentration when evaluating compounds in this manner.”

In data set [3] the test system is 5-HT uptake, synaptosomes prepared from the rat brain. Nature of the data set: Serotonin uptake into synaptosomes. Type of data set: cell-based. How it is done: as §1, with “preparations.” for “preparations. The concentration of MPH, EPH, and IPH utilized in these studies was 10 μM, which represents a generally accepted screening concentration when evaluating compounds in this manner.”
Serotonin Uptake. The assessment of the relative effects of IPH and MPH on 5-HT uptake utilized measures of [^3H]5-HT incorporation into synaptosomes prepared from the rat brain. […] Following incubation, the samples were filtered, counted using a scintillation instrument, and the results expressed as a percent inhibition of the control uptake of [^3H]5-HT. The standard inhibitory reference compound was the TCA imipramine, which was tested in each experiment at several concentrations to obtain an inhibition curve from which its IC50 value was calculated.

The target in data set [4] is T2, human carboxylesterase 1 (hCES1) (Homo sapiens, UniProt P23141).
T2 construct: expressed in transfected cells
T2 sequence (P23141 18-567): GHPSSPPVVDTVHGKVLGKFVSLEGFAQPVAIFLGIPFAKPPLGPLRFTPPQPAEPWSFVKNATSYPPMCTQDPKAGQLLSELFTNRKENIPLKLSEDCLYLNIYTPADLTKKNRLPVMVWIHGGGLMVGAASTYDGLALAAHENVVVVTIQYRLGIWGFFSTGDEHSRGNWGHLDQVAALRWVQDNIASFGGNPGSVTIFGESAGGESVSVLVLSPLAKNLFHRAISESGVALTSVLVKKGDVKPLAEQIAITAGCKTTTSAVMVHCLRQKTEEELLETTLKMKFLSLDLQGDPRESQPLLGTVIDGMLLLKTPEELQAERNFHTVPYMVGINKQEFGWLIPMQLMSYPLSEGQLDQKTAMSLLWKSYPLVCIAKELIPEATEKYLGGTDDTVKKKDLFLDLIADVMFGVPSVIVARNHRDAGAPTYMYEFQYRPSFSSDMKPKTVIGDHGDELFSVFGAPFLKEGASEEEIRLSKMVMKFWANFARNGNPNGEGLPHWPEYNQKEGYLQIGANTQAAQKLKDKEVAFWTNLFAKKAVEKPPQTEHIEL
Nature of the data set: Hydrolysis to ritalinic acid by recombinant hCES1 (s9 fraction of transfected cells). The following applies: 1 mM substrate, 60 min. Type of data set: in vitro ADME. Here is the method: (§2) FIG. 2—Hydrolysis of methylphenidate (MPH) and isopropylphenidate (IPH) by recombinant human CES1, HLM, HIM. After incubation with CES 1 transfected human cells, HLM, and HIM at 37° C. for 60 min, the metabolite RA produced via hydrolysis of MPH and IPH was determined by HPLC. Data are presented as mean±SEM of 3 to 6 independent experiments.
(§3) Determination of Relative Hydrolytic Rates of MPH and IPH. The assessment of relative rates of hydrolysis of the two ester compounds utilized both cell culture and human liver microsomes (HLM) and human intestinal microsomes (HIM). The human carboxylesterase 1 (hCES1) s9 fraction was prepared utilizing a novel method developed in the inventors' laboratory previously (Zhu et al., 2008). Hydrolysis of IPH and MPH by hCES1, HLM, and human intestinal microsomes was assessed by incubating the substrates with the respective enzymes and measuring the formation of the major metabolite RA formed via ester hydrolysis. Briefly, 50 μl of freshly prepared substrates (IPH and MPH) was mixed with 50 μl of enzymes in 1.5 ml Eppendorf tubes yielding a total volume of 100 μl. […] Concentrations of the primary hydrolytic product of the two compounds, RA were determined utilizing a validated HPLC method previously described.

For data set [5], the system named is human intestinal microsomes (HIM). The experiment in a line: Hydrolysis to ritalinic acid by human intestinal microsomes. It counts as in vitro ADME. The following applies: 1 mM substrate, 0.2 mg/ml HIM, 37° C., 60 min. How it is done: as §2, §3

T1 sequence (P31645 whole entry): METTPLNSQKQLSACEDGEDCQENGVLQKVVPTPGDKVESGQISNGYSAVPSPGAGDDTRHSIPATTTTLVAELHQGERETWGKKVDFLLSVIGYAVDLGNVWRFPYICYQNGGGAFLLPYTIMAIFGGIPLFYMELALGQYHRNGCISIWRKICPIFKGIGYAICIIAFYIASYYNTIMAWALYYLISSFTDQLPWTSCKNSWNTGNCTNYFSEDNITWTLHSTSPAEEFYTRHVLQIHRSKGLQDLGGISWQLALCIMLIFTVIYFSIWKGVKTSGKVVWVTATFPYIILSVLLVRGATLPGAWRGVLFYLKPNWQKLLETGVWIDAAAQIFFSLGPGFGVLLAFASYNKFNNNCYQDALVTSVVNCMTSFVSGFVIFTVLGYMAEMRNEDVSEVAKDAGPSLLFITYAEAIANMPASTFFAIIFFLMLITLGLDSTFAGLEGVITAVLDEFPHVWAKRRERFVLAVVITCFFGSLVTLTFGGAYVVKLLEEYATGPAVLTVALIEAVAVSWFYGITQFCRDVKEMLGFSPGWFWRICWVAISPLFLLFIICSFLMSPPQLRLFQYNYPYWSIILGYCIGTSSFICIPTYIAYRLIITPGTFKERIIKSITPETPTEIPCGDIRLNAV

For the compound `CC(C)OC(=O)C(c1ccccc1)C1CCCCN1` (racemic) [IPH, dl-threo-α-phenyl-2-piperidineacetic acid isopropyl ester], the “% inhibition of control specific binding, SERT (h)” value in data set [1] (10 μM) was 20%. Further, the “% inhibition of control specific binding; [3H]NE incorporation into synaptosomes” value in data set [2] (10 μM) was determined as 62%. In addition, in data set [3] (10 μM), the “% inhibition of control specific binding; [3H]5-HT incorporation into synaptosomes” value is 28%. The “substrate quality for hCES1 hydrolysis” value in data set [4] (37° C.) is given as “poor substrate of hCES1”. Also, in data set [5], the “catalytic activity of HIM on hydrolysis” value is “extremely low”.
Regarding `COC(=O)C(c1ccccc1)C1CCCCN1` (racemic) [MPH, dl-threo-methylphenidate, reference compound], the inhibition at 10 µM in data set [1] (read-out: % inhibition of control specific binding, SERT (h)) stood at 6%; in data set [2] (read-out: % inhibition of control specific binding, [3H]NE incorporation into synaptosomes), 117%; in data set [3] (read-out: % inhibition of control specific binding, [3H]5-HT incorporation into synaptosomes) it was 35%. The “catalytic efficiency of hCES1-mediated hydrolysis, MPH relative to IPH” value in data set [4] (0.5 mg/ml hCES1, 37° C., RA formation by HPLC) was “approximately 10 fold”. Besides, the “catalytic activity of HIM on hydrolysis” value in data set [5] is reported as “extremely low”.
